From the supplement of paper PMC10307832

Columns and labels:
Assay in all cases: relative viability (nuclei count vs DMSO), 5 days (fraction); higher = more cells survive
ALW-II-49-7 + Dasatinib = compound: Cc1ccc(C(=O)Nc2cccc(C(F)(F)F)c2)cc1Nc1cncc(C(N)=O)c1 [ALW-II-49-7] + Cc1nc(Nc2ncc(C(=O)Nc3c(C)cccc3Cl)s2)cc(N2CCN(CCO)CC2)n1 [Dasatinib] (partner 0.075 µM)
Summary of the method: (§1)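 The day after seeding in 1536-well plates, lung cancer cell lines were treated by pin tool with a single drug, or with a fixed anchor-drug dose together with five library-drug doses (not always all listed) in √10 steps. After 5 days, a combined fix-and-stain solution (final 0.05% Triton X-100, 1% formaldehyde, 1 ug/ml Hoechst) was added. Nuclei counted on 4× images gave relative viability as treated counts over vehicle counts, reported as the median of duplicate plates.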

XMD13-2 + Olaparib = compound: C1CC1C(=O)NC2=NNC3=C2C=CC(=C3)C4=CC(=CC=C4)C(=O)NC5CC5 [XMD13-2] + O=C(c1cc(Cc2n[nH]c(=O)c3ccccc23)ccc1F)N1CCN(C(=O)C2CC2)CC1 [Olaparib] (partner 8 µM)
Summary of the method: as §1

ALW-II-49-7 + Navitoclax = compound: Cc1ccc(C(=O)Nc2cccc(C(F)(F)F)c2)cc1Nc1cncc(C(N)=O)c1 [ALW-II-49-7] + CC1(C)CCC(c2ccc(Cl)cc2)=C(CN2CCN(c3ccc(C(=O)NS(=O)(=O)c4ccc(N[C@H](CCN5CCOCC5)CSc5ccccc5)c(S(=O)(=O)C(F)(F)F)c4)cc3)CC2)C1 [Navitoclax] (partner 0.5 µM)
Summary of the method: as §1

XMD13-2 + Pemetrexed = compound: C1CC1C(=O)NC2=NNC3=C2C=CC(=C3)C4=CC(=CC=C4)C(=O)NC5CC5 [XMD13-2] + Nc1nc2[nH]cc(CCc3ccc(C(=O)N[C@@H](CCC(=O)O)C(=O)O)cc3)c2c(=O)[nH]1 [Pemetrexed] (partner 0.2 µM)
Summary of the method: as §1

Cell Line | relative viability (ALW-II-49-7 + Dasatinib; first compound 0.08 µM) | relative viability (ALW-II-49-7 + Dasatinib; first compound 0.253 µM) | relative viability (ALW-II-49-7 + Dasatinib; first compound 0.8 µM) | relative viability (ALW-II-49-7 + Dasatinib; first compound 2.53 µM) | relative viability (ALW-II-49-7 + Dasatinib; first compound 8 µM) | relative viability (XMD13-2 + Olaparib; first compound 0.05 µM) | relative viability (XMD13-2 + Olaparib; first compound 0.1581 µM) | relative viability (XMD13-2 + Olaparib; first compound 0.5 µM) | relative viability (XMD13-2 + Olaparib; first compound 1.581 µM) | relative viability (XMD13-2 + Olaparib; first compound 5 µM) | relative viability (ALW-II-49-7 + Navitoclax; first compound 0.08 µM) | relative viability (ALW-II-49-7 + Navitoclax; first compound 0.253 µM) | relative viability (ALW-II-49-7 + Navitoclax; first compound 0.8 µM) | relative viability (ALW-II-49-7 + Navitoclax; first compound 2.53 µM) | relative viability (ALW-II-49-7 + Navitoclax; first compound 8 µM) | relative viability (XMD13-2 + Pemetrexed; first compound 0.05 µM) | relative viability (XMD13-2 + Pemetrexed; first compound 0.1581 µM) | relative viability (XMD13-2 + Pemetrexed; first compound 0.5 µM) | relative viability (XMD13-2 + Pemetrexed; first compound 1.581 µM) | relative viability (XMD13-2 + Pemetrexed; first compound 5 µM)
NCI-H1755 | 0.397 | 0.442 | 0.459 | 0.408 | 0.308 | 0.878 | 0.892 | 0.94 | 0.91 | 0.84 | 0.976 | 1.03 | 0.976 | 0.884 | 0.759 | 0.418 | 0.455 | 0.473 | 0.456 | 0.396
PC-14 | 0.202 | 0.3 | 0.242 | 0.227 | 0.192 | 0.299 | 0.259 | 0.266 | 0.271 | 0.467 | 1.04 | 0.92 | 0.923 | 0.911 | 0.86 | 0.14 | 0.131 | 0.118 | 0.148 | 0.13
NCI-H322M | 0.246 | 0.256 | 0.261 | 0.251 | 0.231 | 0.807 | 0.848 | 0.553 |  | 1.04 | 1.22 | 1.31 | 1.24 | 1.26 | 1.09 | 0.659 | 0.614 | 0.579 |  | 0.608
NCI-H1666 | 0.845 | 0.81 | 0.794 | 0.767 | 0.835 | 0.752 | 0.736 | 0.793 | 0.742 | 0.777 | 0.879 | 1.03 | 1.03 | 0.978 | 1 | 0.863 | 0.919 | 0.875 | 0.884 | 0.946
A-427 | 0.686 | 0.824 | 0.733 | 0.741 | 0.627 | 0.814 | 0.688 | 0.728 |  | 0.485 | 1.07 | 0.942 | 0.998 | 0.994 | 1.05 | 1.04 | 0.922 | 0.995 |  | 0.82
NCI-H1651 | 0.317 | 0.393 | 0.432 | 0.507 | 0.517 | 0.174 | 0.206 | 0.19 | 0.184 | 0.188 | 1.09 | 0.969 | 1.13 | 0.921 | 1.06 | 0.607 | 0.56 | 0.577 | 0.647 | 0.775
NCI-H1793 | 0.398 | 0.387 | 0.296 | 0.348 | 0.406 | 1.23 | 0.812 | 0.95 | 0.927 | 0.983 | 0.268 | 0.505 | 0.463 | 0.363 | 0.463 | 1.26 | 0.83 | 0.94 | 0.859 | 0.97
NCI-H520 | 0.218 | 0.192 | 0.202 | 0.172 | 0.177 | 0.333 | 0.325 | 0.498 | 0.36 | 0.307 | 1.04 | 1.23 |  | 1.03 | 1.01 | 0.704 | 0.636 | 0.665 | 0.573 | 0.442
201T | 0.616 | 0.664 | 0.545 | 0.594 | 0.479 | 0.851 | 0.866 | 0.856 | 0.811 | 0.876 | 1.18 | 1.22 | 1.21 | 1.27 | 1.23 | 0.372 | 0.309 | 0.384 | 0.329 | 0.364
NCI-H460 | 0.492 | 0.583 | 0.563 | 0.423 | 0.507 | 0.546 | 0.493 | 0.412 | 0.526 | 0.566 | 1.17 | 1.08 | 1.11 | 1.25 | 1.09 | 0.0636 | 0.0622 | 0.0651 | 0.0612 | 0.0633
NCI-H596 | 0.575 | 0.632 | 0.459 | 0.582 | 0.581 | 0.703 | 0.729 | 0.738 | 0.704 | 0.769 | 0.98 | 0.784 | 0.85 | 0.972 | 0.927 | 0.478 | 0.454 | 0.518 | 0.456 | 0.492
HARA | 0.351 | 0.272 | 0.148 | 0.22 | 0.161 | 0.76 | 1.11 | 0.831 | 0.987 | 0.643 | 1.22 | 1.07 | 1.13 | 1.15 | 1.22 | 0.224 | 0.273 | 0.269 | 0.208 | 0.323
NCI-H2170 | 0.725 | 0.531 | 0.608 | 0.512 | 0.614 | 0.663 | 0.554 | 0.631 | 0.581 | 0.601 | 0.701 | 0.568 | 0.569 | 0.655 | 0.592 | 0.284 | 0.294 | 0.323 | 0.267 | 0.285
NCI-H2126 | 0.534 | 0.638 | 0.586 | 0.52 | 0.457 | 0.922 | 0.863 | 0.894 | 0.821 | 0.929 | 0.86 | 0.934 | 0.855 | 0.877 | 0.862 | 0.748 | 0.656 | 0.634 | 0.704 | 0.647
HCC-827 | 0.326 | 0.331 | 0.294 | 0.232 | 0.239 | 0.722 | 0.661 | 0.575 | 0.609 | 0.421 | 0.981 | 1.05 | 1.08 | 1.01 | 0.987 | 0.264 | 0.27 | 0.211 | 0.272 | 0.261
BEN | 0.378 | 0.341 | 0.348 | 0.325 | 0.305 | 0.925 | 0.94 | 0.941 | 1.12 | 0.995 | 0.111 | 0.0965 | 0.0694 |  | 0.0797 | 0.876 | 0.858 | 0.734 | 0.641 | 0.803
